Experimental data from BindingDB's records for doi:10.3109/14756366.2011.629198 (Dumlupinar University, 2012).
Where a name gives a salt, the structure may show the parent alone.

Tests used:
Assay in all cases: CA Inhibition Assay
Details in all cases: pH 7.4
Carbonic anhydrase 4 = Carbonic anhydrase 4 (Homo sapiens, UniProt P22748)
Carbonic anhydrase 2 = Carbonic anhydrase 2 (Homo sapiens, UniProt P00918)
Carbonic anhydrase 6 = Carbonic anhydrase 6 (Homo sapiens, UniProt P23280)
Carbonic anhydrase 1 = Carbonic anhydrase 1 (Homo sapiens, UniProt P00915)
Carbonic anhydrase 1, sequence (P00915 whole entry): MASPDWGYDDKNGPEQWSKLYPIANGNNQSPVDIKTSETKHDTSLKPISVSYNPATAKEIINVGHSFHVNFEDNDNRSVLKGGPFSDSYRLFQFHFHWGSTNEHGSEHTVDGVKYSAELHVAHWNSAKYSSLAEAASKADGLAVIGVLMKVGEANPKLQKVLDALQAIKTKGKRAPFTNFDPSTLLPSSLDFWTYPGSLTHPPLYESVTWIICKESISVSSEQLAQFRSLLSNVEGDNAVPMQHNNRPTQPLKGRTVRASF

Carbonic anhydrase 4, sequence (P22748 whole entry): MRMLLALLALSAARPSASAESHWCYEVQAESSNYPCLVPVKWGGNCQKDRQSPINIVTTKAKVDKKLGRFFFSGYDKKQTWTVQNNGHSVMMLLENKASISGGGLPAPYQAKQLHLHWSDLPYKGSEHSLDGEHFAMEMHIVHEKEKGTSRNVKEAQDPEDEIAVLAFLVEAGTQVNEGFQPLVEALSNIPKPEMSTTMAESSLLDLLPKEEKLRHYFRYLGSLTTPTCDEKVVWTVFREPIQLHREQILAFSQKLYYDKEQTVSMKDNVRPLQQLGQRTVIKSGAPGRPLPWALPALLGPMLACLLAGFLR
Carbonic anhydrase 6, sequence (P23280 whole entry): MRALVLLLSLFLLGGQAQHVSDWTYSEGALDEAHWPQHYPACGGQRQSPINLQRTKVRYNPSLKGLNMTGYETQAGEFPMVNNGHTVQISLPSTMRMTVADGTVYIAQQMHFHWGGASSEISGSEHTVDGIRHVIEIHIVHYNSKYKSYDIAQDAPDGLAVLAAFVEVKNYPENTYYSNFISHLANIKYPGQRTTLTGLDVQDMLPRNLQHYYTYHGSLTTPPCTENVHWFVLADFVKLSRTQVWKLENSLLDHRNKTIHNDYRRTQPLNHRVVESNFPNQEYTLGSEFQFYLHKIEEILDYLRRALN

Ki (Carbonic anhydrase 4) | Ki (Carbonic anhydrase 2) | Ki (Carbonic anhydrase 6) | Ki (Carbonic anhydrase 1) | SMILES
16.3 µM | 5.41 µM | 123 µM | 77.2 µM | O=S(=O)(O)O[C@@H]1CC/C=C\CC[C@H]1O [trans-(1R(S),8R(S),Z)-8-Hydroxycyclooct-4-enyl hydrogen sulfate (6)]
77.9 µM | 32.4 µM | 127 µM | 423 µM | O[C@@H]1Cc2ccccc2C[C@H]1O [trans-(2R(S),3R(S))-1,2,3,4-Tetrahydronaphthalene-2,3-diol (11)]

More lines, now with the values behind:

SMILES | Ki (Carbonic anhydrase 4) | Ki (Carbonic anhydrase 2) | Ki (Carbonic anhydrase 6) | Ki (Carbonic anhydrase 1)
O[C@@H]1CCCC[C@H]1O [(1R,2R)-trans-1,2-cyclohexanediol] | 18.8 µM | 4.68 µM | 76.2 µM | 135 µM
O[C@@H]1C2C[C@H](O)C1c1ccccc12 (stereo partly drawn) [9(R(S))-Hydroxy-1,2,3,4-tetrahydro-1,4-methanonaphthalen-2(R(S))-diol (9)] | 234 µM | 23.7 µM | 278 µM | 142 µM
O=S(=O)(O)O[C@@H]1CC=CC[C@H]1O [trans-(1R(S),6R(S))-6-Hydroxycyclohex-3-enyl hydrogen sulfate (4)] | 13.7 µM | 2.13 µM | 93.1 µM | 41.3 µM
O=S(=O)(O)O[C@H]1CC2c3ccccc3C1[C@@H]2O (stereo partly drawn) [9(R(S))-Hydroxy-1,2,3,4-tetrahydro-1,4-methanonaphthalen-2(R(S))-yl sulfate (8)] | 199 µM | 10.4 µM | 221 µM | 32.7 µM
